CC1=NN(c2ccccc2)C(=O)C1
solubility (mole fraction)
Details | 283.15 K | 288.15 K | 293.15 K | 298.15 K | 303.15 K | 313.15 K | 323.15 K
in 1,4-dioxane | – | 0.027 | 0.0341 | – | 0.0483 | 0.0669 | 0.1
in acetone | 0.0167 | – | 0.0254 | – | 0.0371 | 0.0563 | 0.108
in acetonitrile | 0.00788 | – | 0.0126 | – | 0.019 | 0.0284 | 0.0438
in dichloromethane | 0.0447 | 0.0499 | 0.0582 | 0.0688 | 0.0788 | – | –
in ethanol | 0.0176 | – | 0.024 | – | 0.0339 | 0.0457 | 0.0597
in ethyl acetate | 0.0131 | – | 0.0159 | – | 0.0198 | 0.0335 | 0.0545
in isobutanol | 0.0153 | – | 0.0218 | – | 0.0288 | 0.0398 | 0.0573
in isopropanol | 0.0135 | – | 0.0186 | – | 0.0268 | 0.0356 | 0.0514
in methanol | 0.0194 | – | 0.0278 | – | 0.0402 | 0.0562 | 0.0833
in n-butanol | 0.0194 | – | 0.0272 | – | 0.0372 | 0.0504 | 0.0703
in n-pentanol | 0.0245 | – | 0.0285 | – | 0.0381 | 0.05 | 0.069
in n-propanol | 0.0149 | – | 0.025 | – | 0.0344 | 0.0494 | 0.0689
in sec-butanol | 0.0156 | – | 0.0218 | – | 0.0296 | 0.0404 | 0.0579
in water | 0.000153 | – | 0.000163 | – | 0.000174 | 0.000189 | 0.00021

Source: BigSolDB 2.1
